Among the data in patent US9488914B2, “Fluorine-containing sulfonic acid salt, fluorine-containing sulfonic acid salt resin, resist composition, and pattern forming method using same” (Central Glass Company, Limited, priority 2012, dated 2016) are Solubility values, retold here.

A short description of the data set: Solubility of polymerizable fluorine-containing sulfonic acid onium salts in PGMEA. As to conditions: amount (g) of polymerizable monomer dissolved in 100 g of PGMEA.

As for `C=C(COCC(F)(F)S(=O)(=O)O)C(=O)OC1CCOC1=O` (stereo not shown) [PAG-1, Triphenylsulfonium 2-[2-(2-oxotetrahydrofuran-3-yloxycarbonyl)-2-methyleneethoxy]-1,1-difluoroethanesulfonate], the Solubility came to 38 g/100 g.

Consider `C=C(COCCC(F)(F)C(F)(F)S(=O)(=O)[O-])C(=O)OC1CC2CC1CC2CC(OC(C)=O)(C(F)(F)F)C(F)(F)F.c1ccc(-[s+]2c3ccccc3c3ccccc32)cc1` (stereo not shown) [PAG-2, Phenyldibenzothiophenium 4-[2-(3,3,3-trifluoro-2-acetyloxy-2-(trifluoromethyl)propyl)bicyclo[2.2.1]hepta-2-yloxycarbonyl-2-methyleneethoxy]-1,1,2,2-tetrafluorobutanesulfonate], for which the Solubility was 50 g/100 g.

Regarding `C=C(COCC(F)(F)S(=O)(=O)O)C(=O)OC1CC(C(O)(C(F)(F)F)C(F)(F)F)CC(C(O)(C(F)(F)F)C(F)(F)F)C1` (stereo not shown) [PAG-3, Diphenyl-p-tolylsulfonium 2-[2-(3,5-bis(hexafluoro-2-hydroxypropan-2-yl)cyclohexyloxycarbonyl)-2-methyleneethoxy]-1,1-difluoroethanesulfonate], the Solubility was determined as 55 g/100 g. To `C=C(COCCC(F)(F)C(F)(F)S(=O)(=O)O)C(=O)Oc1ccc2sc(=O)oc2c1` [PAG-8] belongs 42 g/100 g; to `C=C(COC(CCCC)C(F)(F)S(=O)(=O)[O-])C(=O)Oc1ccc(C(O)(C(F)(F)F)C(F)(F)F)cc1.Cc1ccc([S+](c2ccc(C)cc2)c2ccc(C)cc2)cc1` (stereo not shown) [PAG-11, Tri-p-tolylsulfonium 2-[4-(2,2,2-trifluoro-1-hydroxy-1-(trifluoromethyl)ethylphenoxycarbonyl)-2-methylene-ethoxy]-1,1-difluorohexanesulfonate], 45 g/100 g. In the case of `C=C(COCCCC(F)(F)S(=O)(=O)O)C(=O)OC1CC2CC1C1COC(=O)C21` (stereo not shown) [PAG-15, [(4-trifluoromethyl)phenyl]diphenylsulfonium 4-(4-oxa-tricyclo[5.2.1.0(2,6)]decan-3-on-8-yloxycarbonyl-2-methylene-ethoxy)-1,1-difluorobutanesulfonate] it was 42 g/100 g; in that of “Triphenylsulfonium 2-[2-(1,1,1-trifluoro-2-hydroxy-2-(trifluoromethyl)penta-5-yloxycarbonyl)-2-methyleneethoxy]-1,1-difluoroethanesulfonate [PAG-13]”, 47 g/100 g.
